According to patent publication US9856480B2, “Dnazyme for silencing the expression of EGFR” (DCB-USA LLC, priority 2013, dated 2018):
Strand notation (5' to 3'): a small letter for the sugar, then the base; units joined by * are phosphorothioate-linked, units joined directly phosphodiester-linked; [ ] holds rarer units or linkages, { } end groups; capitals alone tell only the bases. d = 2'-deoxy (DNA)

Legend:
Format in all cases: cell-based, human
wild-type EGFR mRNA = experiment: Quantitative real-time PCR of EGFR mRNA knockdown; conditions: A549 cells; 50, 100, or 150 nM; 48 h
Description: A549, CL1-5, H1975, or CL97 was seeded onto 6-well at 3×10^5 cells/well and cultured overnight. Then, cells were separately treated with 100 nM DzControl or DzT790M-1 with lipofectamine 2000 (Invitrogen). After 48 h, total mRNA were extracted from DNAzyme-treated cells by Mestrisol following manufacturer's protocol. cDNA were synthesized by using RT III kit with random hexamers as primers (Invitrogen). The PCR primers were synthesized by Genomics BioSci & Tech (Taipei, Taiwan). The sequences of PCR primers are listed as follows: […]
The parameters for PCR were: 95° C. for 10 min, then 25 cycles of PCR at 95° C. for 30 s, 60° C. for 30 s, and 72° C. for 60 s. 3% agarose gels were used for electrophoresis of PCR products. The intensity of bands were quantified by Image J. Quantitative RT-PCR was performed on 40 ng total mRNA with the LightCycler 480 system (Roche). The PCR mix contained 5 μl of 2× Probe Master mix, 100 nM of UPL probe (Roche Diagnostics, Penzberg, Germany), 200 nM of forward primer and reverse primer, 0.1 ul RNAseout (Invitrogen), and 0.025 ul RTIII enzyme (Invitrogen) in a total volume of 10 μl. PCR parameters were as follows: 50° C. for 40 min, then 45 cycles of PCR at 95° C. for 10 s, 60° C. for 10 s, and 72° C. for 2 s. Data were analyzed by LC480 software (Roche Diagnostics, Penzberg, Germany). The relative amount of EGFR mRNA was normalized to ACTB mRNA. The sequences of PCR primers are as follows: […]
To examine the allele selectivity of DzT790M-1, EGFR mRNA knockdown efficiency was detected in two cell lines harboring wild-type EGFR (A549, CL1-5) and two cell lines containing EGFR T790M mutation (H1975, CL97). A549, CL1-5, H1975, or CL97 was seeded onto 6-well at 3×10^5 cells/well and cultured overnight. […]
Then, A549 and PC9 cells were separately treated with 50, 100, or 150 nM control DNAzyme or DzEGFR—ΔE746-A750 with Lipofectamine 2000 for 48 h. […] Quantitative RT-PCR was performed on 40 ng total mRNA with the LightCycler 480 system (Roche). […] Data were analyzed by LC480 software (Roche Diagnostics). […]

[1] = tested on: EGFR E746-A750 deletion mRNA; experiment: Quantitative RT-PCR of EGFR mRNA in PC9 cells; conditions: 50, 100, or 150 nM, 48 h, DzControl-treated group as 100% expression
Description: Then, A549 and PC9 cells were separately treated with 50, 100, or 150 nM control DNAzyme or DzEGFR—ΔE746-A750 with Lipofectamine 2000 for 48 h. A549 and H1975 cells were separately treated with 100 nM control DNAzyme or different DzL858Rs with Lipofectamine 2000 for 48 h. RNA purification was done by conventional TRIzol® (Invitrogen Corp., Grand Island, N.Y.) method following manufacturer's protocol. Quantitative RT-PCR was performed on 40 ng total mRNA with the LightCycler 480 system (Roche). The PCR mix contained 5 μl of 2× ProbeMaster mix, 100 nM of UPL probe (Roche Diagnostics, Penzberg, Germany) and 200 nM of primer (each) in a total volume of 10 μl. The PCR conditions were 95° C. for 10 min, followed by 60 cycles at 95° C. for 10 s, 60° C. for 10 s, and 72° C. for 2 s. Data were analyzed by LC480 software (Roche Diagnostics). The relative amount of EGFR mRNA was normalized to ACTB mRNA. The sequences of PCR primers are as follows: […]

[2] = tested on: PC9 cells (E746-A750 deletion EGFR); experiment: Cell proliferation (MTT); conditions: 48 h, DzControl-treated group as 0% death
Description: (§1) Then, cells were separately treated with 50, 100, or 150 nM control DNAzyme or DzEGFR—ΔE746-A750 with Lipofectamine 2000 for 48 h.

[3] = tested on: A549 cells (wild type EGFR); experiment: Cell proliferation (MTT); conditions: 150 nM of DNAzyme, 48 h
Description: as §1

wild-type EGFR = experiment: Western immunoblotting of EGFR expression and downstream signaling in wild-type EGFR cell lines; conditions: A549 and CL1-5 cells, 100 nM
Description: A549, CL1-5, H1975, or CL97 was seeded onto 6-well at 3×10^5 cells/well and cultured overnight. Then, cells were separately treated with 100 nM DzControl or DzT790M-1 with lipofectamine 2000 (Invitrogen). The transfected A549 and CL1-5 cells were serum-starved for 24 h and treated with 100 ng/ml of EGF at 37° C. for 15 min. 72 h after transfection, cell were collected for analysis. Cells were washed twice by ice-cold PBS and then total protein was extracted by RIPA buffer with protease inhibitor (Roche). 50 μg of total protein from the supernatants were boiled for 5 min at 95° C. The samples were resolved on 10% SDS-PAGE gel and transferred onto nitrocellulose membranes. EGFR expression and downstream signaling were detected by using primary antibodies specific to human pEGFR(Y1068) (Cell signaling), tEGFR (Santa Cruz), pSTAT3 (Y705) (Cell signaling), tSTAT3 (Cell signaling), pAKT (5473)(Cell signaling), tAKT (Santa Cruz), pERK (T202/Y204) (Cell signaling), tERK (Santa Cruz), and cleaved PARP (Cell signaling) at 1:1000 dilution and β-actin (Santa Cruz) at 1:10000 dilution, respectively. Secondary antibodies against rabbit IgG or mouse IgG was used at 1:5000 dilution. Protein bands on membrane were visualized by exposure to the chemiluminescence substrate.
EGFR belongs to receptor tyrosine kinases. The binding of its extracellular ligands triggers receptor dimerization, tyrosine residues phosphorylation, and downstream signaling activation including signal transducer and activator of transcription 3 (STAT3), Akt, extracellular signal regulated kinases (ERK), and others. To examine the effects of DzT790M on protein expression level of EGFR and its downstream signaling, western immunoblotting was performed on DzT790M transfected cells. A549, CL1-5, H1975, or CL97 was seeded onto 6-well at 3×10^5 cells/well and cultured overnight. Then, cells were separately treated with 100 nM DzControl or DzT790M-1 with lipofectamine 2000 (Invitrogen). The transfected A549 and CL1-5 cells were serum-starved for 24 h and treated with 100 ng/ml of EGF at 37° C. for 15 min. 72 h after transfection, cell were collected for analysis. Cells were washed twice by ice-cold PBS and then total protein was extracted by RIPA buffer with protease inhibitor (Roche). […] Also, activation of downstream STAT3, AKT, and ERK signaling after EGF treatment were not inhibited by DzT790M-1 or DzT790M-2 transfection.
CL1-5 (EGFR wild-type) or H1975 (EGFR T790M) were seeded onto 6-well at 3×10^5 cells/well and cultured overnight. […] The transfected CL1-5 cells were serum-starved for 24 h and treated with 100 ng/ml of EGF at 37° C. for 15 min. 72 h after transfection, cells were collected for western blotting analysis following the above mentioned procedure. […]

CL97 cells = experiment: Apoptosis assay (annexin V and PI, flow cytometry); conditions: 100 nM, 48 h
Description: (§2) H1975 or CL97 was seeded onto 10-cm dish and cultured overnight. Then, cells were separately treated with 100 nM DzControl or DzT790M-1 with lipofectamine 2000 (Invitrogen). After 48 h, cells were collected, double stained by annexin V and PI, and analyzed by flow cytometry following the protocol of Dead cell apoptosis kit from manufacturer (Invitrogen).

H1975 cells = experiment: Apoptosis assay (annexin V and PI, flow cytometry); conditions: 100 nM, 48 h
Description: as §2

In the case of “DzEGFR—ΔE746-A750: DNAzyme against EGFR E746-A750 deletion: GGAGATGTGTCAGCTGACTCGAATGATAGCGAC (DNA, backbone and methylation of C not given here)”, the “binding and action on wild type EGFR” value (wild-type EGFR mRNA) is reported as “did not bind and act”, the “mutant EGFR expression” value [1] is reported as “suppressed” and the “death of PC9 cells” value [2] is reported as 60%. The “viability of A549 cells affected” value [3] was 20%.
In the case of “DzT790M-2: 10-23 DNAzyme against EGFR T790M mRNA, arms 8/8: GAGCTGCAGGCTAGCTACAACGAGATGAGCT (DNA, backbone and methylation of C not given here)”, the “activation of downstream STAT3, AKT, and ERK signaling after EGF treatment” value (wild-type EGFR; 100 ng/ml EGF 15 min) is reported as “not inhibited” and the “protein level of EGFR compared to DzControl group” value (wild-type EGFR; 72 h after transfection) is reported as “did not decreased”.
“DzControl: control DNAzyme not complementary to any mRNA in human cells: CATCGGAGGCTAGCTACAACGAGACAGCTG (DNA dC*dAdTdCdGdGdAdGdGdCdTdAdGdCdTdAdCdAdAdCdGdAdGdAdCdAdGdCdT*dG; further chemistry not fully specified) [reference compound]” was tested, and the “percentage of apoptotic cells in whole cell population” value (CL97 cells) was 5.2%, the “percentage of dead cells in whole cell population” value (CL97 cells) was 17% and the apoptotic cells (H1975 cells) was 3.6%. For the same substance, the “dead cells (annexin V and PI double positive)” value (H1975 cells) was 12.4%.
